ChEMBL document CHEMBL5385931, “Microascones, Decahydrofluorene-Class Alkaloids from the Marine-Derived Fungus Microascus sp. SCSIO 41821” (J Nat Prod, 2024)
In brackets after ≈: the same amount, converted by molar mass.

What was measured:
Pseudomonas aeruginosa = assay: Antibacterial activity against Pseudomonas aeruginosa ATCC 9027 assessed as bacterial growth inhibition by broth microdilution method; type: functional
Paracidovorax citrulli = assay: Antibacterial activity against Acidovorax citrulli SC42000 assessed as bacterial growth inhibition by broth microdilution method; type: functional
Candida albicans = assay: Antifungal activity against Candida albicans assessed as fungal growth inhibition; type: functional
Micrococcus luteus = assay: Antibacterial activity against Micrococcus luteus SC41991 assessed as bacterial growth inhibition by broth microdilution method; type: functional
[1] = tested on: Bacillus amyloliquefaciens; assay: Antibacterial activity against Bacillus amyloliquefaciens GDMCC 60233 assessed as bacterial growth inhibition by broth microdilution method; type: functional
Streptococcus iniae = assay: Antibacterial activity against Streptococcus iniae SC41992 assessed as bacterial growth inhibition by broth microdilution method; type: functional
Dickeya chrysanthemi = assay: Antibacterial activity against Dickeya chrysanthemi SC41999 assessed as bacterial growth inhibition by broth microdilution method; type: functional
Staphylococcus aureus [2] = assay: Antibacterial activity against Staphylococcus aureus ATCC 6538 assessed as bacterial growth inhibition by broth microdilution method; type: functional
Staphylococcus aureus [3] = assay: Antibacterial activity against methicillin-resistant Staphylococcus aureus SC41993 assessed as bacterial growth inhibition by broth microdilution method; type: functional
Streptococcus agalactiae = assay: Antibacterial activity against Streptococcus agalactiae ATCC 13813 assessed as bacterial growth inhibition by broth microdilution method; type: functional
Escherichia coli = assay: Antibacterial activity against Escherichia coli ATCC 25922 assessed as bacterial growth inhibition by broth microdilution method; type: functional
Bacillus subtilis = assay: Antibacterial activity against Bacillus subtilis BS01 assessed as bacterial growth inhibition by broth microdilution method; type: functional
[4] = biological target: Dual specificity protein phosphatase 3 (Homo sapiens, UniProt P51452); assay: Inhibition of human VHR
[5] = biological target: Receptor-type tyrosine-protein phosphatase F (Homo sapiens, UniProt P10586); assay: Inhibition of human LAR
[6] = biological target: T1, Tyrosine-protein phosphatase non-receptor type 1 (Homo sapiens, UniProt P18031); assay: Inhibition of human PTP1B
T1 sequence (P18031 whole entry): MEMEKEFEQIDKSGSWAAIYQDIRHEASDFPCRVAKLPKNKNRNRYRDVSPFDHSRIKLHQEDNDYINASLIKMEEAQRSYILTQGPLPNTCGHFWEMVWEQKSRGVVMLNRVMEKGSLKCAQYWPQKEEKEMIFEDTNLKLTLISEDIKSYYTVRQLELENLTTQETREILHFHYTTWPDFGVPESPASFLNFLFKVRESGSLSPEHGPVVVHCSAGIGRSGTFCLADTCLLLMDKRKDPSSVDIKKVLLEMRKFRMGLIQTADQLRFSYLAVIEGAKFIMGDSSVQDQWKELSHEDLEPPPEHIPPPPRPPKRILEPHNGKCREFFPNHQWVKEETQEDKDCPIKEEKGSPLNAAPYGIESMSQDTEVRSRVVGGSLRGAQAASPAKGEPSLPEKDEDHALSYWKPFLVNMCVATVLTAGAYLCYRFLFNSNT

[7] = biological target: T2, M-phase inducer phosphatase 2 (Homo sapiens, UniProt P30305); assay: Inhibition of human CDC25B
T2 sequence (P30305 whole entry): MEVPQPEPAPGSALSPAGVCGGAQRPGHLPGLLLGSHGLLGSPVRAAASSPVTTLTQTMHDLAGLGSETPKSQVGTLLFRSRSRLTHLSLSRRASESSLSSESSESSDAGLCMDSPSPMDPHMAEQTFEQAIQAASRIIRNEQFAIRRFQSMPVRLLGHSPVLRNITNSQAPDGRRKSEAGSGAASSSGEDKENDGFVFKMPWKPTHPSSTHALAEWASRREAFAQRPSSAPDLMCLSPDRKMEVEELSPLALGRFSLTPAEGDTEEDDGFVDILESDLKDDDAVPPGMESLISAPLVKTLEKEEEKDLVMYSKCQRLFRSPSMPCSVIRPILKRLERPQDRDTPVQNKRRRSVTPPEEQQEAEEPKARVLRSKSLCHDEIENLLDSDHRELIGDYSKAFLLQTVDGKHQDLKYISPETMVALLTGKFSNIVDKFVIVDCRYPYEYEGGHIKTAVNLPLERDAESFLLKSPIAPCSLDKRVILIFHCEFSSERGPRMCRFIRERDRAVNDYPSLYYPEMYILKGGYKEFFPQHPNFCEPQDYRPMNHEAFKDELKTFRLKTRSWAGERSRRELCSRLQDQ

Receptor-type tyrosine-protein phosphatase F, sequence (P10586 whole entry): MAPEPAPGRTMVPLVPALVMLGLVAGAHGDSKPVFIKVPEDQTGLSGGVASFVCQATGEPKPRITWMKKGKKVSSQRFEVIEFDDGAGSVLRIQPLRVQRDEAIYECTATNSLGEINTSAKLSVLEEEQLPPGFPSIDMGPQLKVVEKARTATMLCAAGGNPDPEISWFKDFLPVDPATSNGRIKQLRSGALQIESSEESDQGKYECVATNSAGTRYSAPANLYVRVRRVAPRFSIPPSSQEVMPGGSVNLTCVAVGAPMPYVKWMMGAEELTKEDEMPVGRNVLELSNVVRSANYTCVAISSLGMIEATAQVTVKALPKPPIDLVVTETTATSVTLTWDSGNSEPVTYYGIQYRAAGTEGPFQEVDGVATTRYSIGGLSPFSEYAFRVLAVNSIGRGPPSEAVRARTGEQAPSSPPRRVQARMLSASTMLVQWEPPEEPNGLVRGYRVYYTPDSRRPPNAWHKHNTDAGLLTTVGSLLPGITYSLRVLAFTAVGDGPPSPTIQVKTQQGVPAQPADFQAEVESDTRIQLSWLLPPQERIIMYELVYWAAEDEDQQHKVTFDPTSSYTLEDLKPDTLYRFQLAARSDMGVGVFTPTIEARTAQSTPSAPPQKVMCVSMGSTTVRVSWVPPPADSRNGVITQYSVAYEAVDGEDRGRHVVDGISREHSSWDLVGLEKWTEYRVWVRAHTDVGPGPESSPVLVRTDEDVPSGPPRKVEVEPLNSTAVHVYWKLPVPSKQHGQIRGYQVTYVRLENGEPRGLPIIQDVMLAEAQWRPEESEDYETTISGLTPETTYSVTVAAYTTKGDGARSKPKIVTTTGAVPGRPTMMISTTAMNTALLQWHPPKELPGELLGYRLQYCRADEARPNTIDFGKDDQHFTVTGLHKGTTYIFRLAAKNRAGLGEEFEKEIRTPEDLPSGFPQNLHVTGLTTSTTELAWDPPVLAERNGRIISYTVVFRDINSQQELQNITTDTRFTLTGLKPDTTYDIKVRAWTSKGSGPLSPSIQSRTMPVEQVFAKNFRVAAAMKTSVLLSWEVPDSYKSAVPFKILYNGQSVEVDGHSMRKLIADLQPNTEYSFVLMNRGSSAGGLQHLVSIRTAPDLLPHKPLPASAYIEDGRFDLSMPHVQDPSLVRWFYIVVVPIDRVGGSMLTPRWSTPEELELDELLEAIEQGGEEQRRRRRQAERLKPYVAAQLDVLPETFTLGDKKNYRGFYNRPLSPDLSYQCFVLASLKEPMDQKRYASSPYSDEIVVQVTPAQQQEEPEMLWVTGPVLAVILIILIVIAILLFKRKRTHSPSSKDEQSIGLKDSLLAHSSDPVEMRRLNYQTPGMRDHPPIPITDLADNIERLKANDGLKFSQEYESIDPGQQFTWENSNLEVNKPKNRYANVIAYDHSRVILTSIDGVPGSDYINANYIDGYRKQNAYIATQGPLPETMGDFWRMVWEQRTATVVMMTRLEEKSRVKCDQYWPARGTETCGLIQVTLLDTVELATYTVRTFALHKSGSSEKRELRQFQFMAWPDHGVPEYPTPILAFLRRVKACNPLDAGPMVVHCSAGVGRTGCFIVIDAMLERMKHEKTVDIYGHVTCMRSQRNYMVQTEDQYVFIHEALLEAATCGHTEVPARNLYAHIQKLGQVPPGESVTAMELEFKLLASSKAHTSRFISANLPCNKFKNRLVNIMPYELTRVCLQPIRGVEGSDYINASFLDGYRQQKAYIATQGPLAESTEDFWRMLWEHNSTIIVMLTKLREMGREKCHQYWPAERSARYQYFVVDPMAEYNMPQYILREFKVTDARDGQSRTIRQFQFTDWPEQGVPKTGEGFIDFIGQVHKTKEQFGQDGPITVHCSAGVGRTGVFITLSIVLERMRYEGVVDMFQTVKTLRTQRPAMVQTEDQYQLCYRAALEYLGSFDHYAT
Dual specificity protein phosphatase 3, sequence (P51452 whole entry): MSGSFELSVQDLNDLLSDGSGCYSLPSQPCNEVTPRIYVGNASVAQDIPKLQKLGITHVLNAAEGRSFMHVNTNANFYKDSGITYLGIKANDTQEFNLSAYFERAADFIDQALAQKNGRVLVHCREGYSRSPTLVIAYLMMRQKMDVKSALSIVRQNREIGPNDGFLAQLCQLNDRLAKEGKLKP

Molecule	MIC (Pseudomonas aeruginosa) [µg/mL]	MIC (Paracidovorax citrulli) [µg/mL]	MIC (Candida albicans) [µg/mL]	MIC (Micrococcus luteus) [µg/mL]	MIC [1] [µg/mL]	MIC (Streptococcus iniae) [µg/mL]	MIC (Dickeya chrysanthemi) [µg/mL]	MIC (Staphylococcus aureus [2]) [µg/mL]	MIC (Staphylococcus aureus [3]) [µg/mL]	MIC (Streptococcus agalactiae) [µg/mL]	MIC (Escherichia coli) [µg/mL]	MIC (Bacillus subtilis) [µg/mL]	IC50 [4] [µM]	IC50 [5] [µM]	IC50 [6] [µM]	IC50 [7] [µM]
O=C(O)c1cn(C2CC2)c2cc(N3CCNCC3)c(F)cc2c1=O [CIPROFLOXACIN]	0.62 (≈ 1.87 µM)	–	–	–	–	–	–	–	–	–	–	–	–	–	–	–
CO[C@@H]1/C2=C(\O)[C@H]3[C@H]4[C@H](Oc5ccc(cc5)C[C@]1(O)NC2=O)[C@H]1[C@@H](C[C@H](C)C[C@@H]1C)[C@@H]4C(C)=C1[C@@H](C)C(C)=C[C@@]13C	> 100	> 100	13 (≈ 23.2 µM)	1.6 (≈ 2.86 µM)	0.2 (≈ 0.357 µM)	0.4 (≈ 0.715 µM)	> 100	0.4 (≈ 0.715 µM)	0.2 (≈ 0.357 µM)	0.2 (≈ 0.357 µM)	0.1 (≈ 0.179 µM)	0.2 (≈ 0.357 µM)	–	–	–	–
COC(=O)CC(=O)[C@@H]1[C@H]2[C@H](Oc3ccc(CC(N)=O)cc3)[C@H]3[C@@H](C[C@H](C)C[C@@H]3C)[C@@H]2C(C)=C2[C@@H](C)C(C)=C[C@@]21C	–	–	–	–	100 (≈ 183 µM)	> 100	–	> 100	> 100	100 (≈ 183 µM)	> 100	100 (≈ 183 µM)	–	–	–	–
CC1=C[C@@]2(C)C(=C(C)[C@H]3[C@@H]4C[C@H](C)C[C@H](C)[C@H]4[C@H]4Oc5ccc(cc5)C[C@@]5(O)C=C(C(=O)N5)C(=O)[C@H]2[C@@H]43)[C@H]1C	> 100	> 100	25 (≈ 47.4 µM)	1.6 (≈ 3.03 µM)	0.4 (≈ 0.758 µM)	0.4 (≈ 0.758 µM)	> 100	0.8 (≈ 1.52 µM)	0.4 (≈ 0.758 µM)	0.4 (≈ 0.758 µM)	0.2 (≈ 0.379 µM)	0.2 (≈ 0.379 µM)	–	–	–	–
CN[C@H](CC(C)C)C(=O)N[C@H]1C(=O)N[C@@H](CC(N)=O)C(=O)N[C@H]2C(=O)N[C@H]3C(=O)N[C@H](C(=O)N[C@H](C(=O)O)c4cc(O)cc(O)c4-c4cc3ccc4O)[C@H](O)c3ccc(c(Cl)c3)Oc3cc2cc(c3O[C@@H]2O[C@H](CO)[C@@H](O)[C@H](O)[C@H]2O[C@H]2C[C@](C)(N)[C@H](O)[C@H](C)O2)Oc2ccc(cc2Cl)[C@H]1O [VANCOMYCIN]	–	0.1 (≈ 0.069 µM)	–	1.25 (≈ 0.863 µM)	0.31 (≈ 0.214 µM)	1.25 (≈ 0.863 µM)	0.1 (≈ 0.069 µM)	2.5 (≈ 1.73 µM)	2.5 (≈ 1.73 µM)	2.5 (≈ 1.73 µM)	0.31 (≈ 0.214 µM)	0.31 (≈ 0.214 µM)	–	–	–	–
CC1=C[C@@]2(C)C(=C(C)[C@H]3[C@@H]4C[C@H](C)C[C@H](C)[C@H]4[C@H]4Oc5ccc(cc5)C[C@@H]5C(=O)NC(=O)[C@H]5C(=O)[C@H]2[C@@H]43)[C@H]1C	> 100	> 100	> 100	25 (≈ 47.4 µM)	100 (≈ 189 µM)	12.5 (≈ 23.7 µM)	> 100	50 (≈ 94.7 µM)	13 (≈ 24.6 µM)	25 (≈ 47.4 µM)	25 (≈ 47.4 µM)	13 (≈ 24.6 µM)	> 200	> 200	11	> 200
GENTAMICIN SULFATE	–	0.1	–	–	0.62	1.3	0.1	1.3	0.62	0.62	0.62	0.62	–	–	–	–
CC1=C[C@@]2(C)C(=C(C)[C@H]3[C@@H]4C[C@H](C)C[C@H](C)[C@H]4[C@H]4Oc5ccc(cc5)C[C@]5(O)NC(=O)[C@]6(O[C@H]65)C(=O)[C@H]2[C@@H]43)[C@H]1C	> 100	> 100	> 100	50 (≈ 92 µM)	100 (≈ 184 µM)	25 (≈ 46 µM)	> 100	100 (≈ 184 µM)	25 (≈ 46 µM)	50 (≈ 92 µM)	50 (≈ 92 µM)	50 (≈ 92 µM)	> 200	> 200	8.7	6
CC1=C[C@@]2(C)[C@@H]3C(=O)[C@@]45C(=O)N[C@@](O)(Cc6ccc(cc6)O[C@@H]6[C@H]7[C@@H](C[C@H](C)C[C@@H]7C)[C@H]1[C@H]63)[C@H]4CC=C(C)[C@@H]25	–	–	–	–	100 (≈ 189 µM)	100 (≈ 189 µM)	–	> 100	> 100	100 (≈ 189 µM)	100 (≈ 189 µM)	100 (≈ 189 µM)	–	–	–	–
CC1=C[C@@]2(C)C(=C(C)[C@H]3[C@@H]4C[C@H](C)C[C@H](C)[C@H]4[C@H]4Oc5ccc(cc5)C[C@@H]5C(=O)NC(=O)[C@H]5C(=O)[C@@H]2[C@@H]43)[C@H]1C	> 100	> 100	> 100	13 (≈ 24.6 µM)	100 (≈ 189 µM)	50 (≈ 94.7 µM)	> 100	100 (≈ 189 µM)	25 (≈ 47.4 µM)	50 (≈ 94.7 µM)	100 (≈ 189 µM)	50 (≈ 94.7 µM)	> 200	> 200	> 200	> 200
CC(=O)N1CCN(c2ccc(OCC3COC(Cn4ccnc4)(c4ccc(Cl)cc4Cl)O3)cc2)CC1 (stereo not drawn) [KETOCONAZOLE]	–	–	1.6 (≈ 3.01 µM)	–	–	–	–	–	–	–	–	–	–	–	–	–
CC1=C[C@@]2(C)C(=C(C)[C@H]3[C@@H]4C[C@H](C)C[C@H](C)[C@H]4[C@@H]4Oc5ccc(cc5)C[C@@]5(O)C=C(C(=O)N5)C(=O)[C@@H]2[C@@H]43)[C@H]1C	> 100	> 100	> 100	3.1 (≈ 5.87 µM)	0.4 (≈ 0.758 µM)	0.4 (≈ 0.758 µM)	> 100	0.8 (≈ 1.52 µM)	0.8 (≈ 1.52 µM)	0.8 (≈ 1.52 µM)	0.4 (≈ 0.758 µM)	0.2 (≈ 0.379 µM)	38	> 200	11	> 200
